# Read-outs that look alike come from different tables or passages of the source.
# How the values were obtained:
# [1] = system: skin epidermoid carcinoma (A431); design: method as in PMID 17109253; settings: arborinine isolated from Ruta graveolens; cited from earlier work
# [2] = system: breast adenocarcinoma (MCF-7); design: method as in PMID 17109253; settings: arborinine isolated from Ruta graveolens; cited from earlier work
# [3] = system: MRC5 (human normal lung fibroblasts); assay: SRB in vitro cytotoxicity screening (toxicity to normal cells); assay type: cell-based; settings: Homo sapiens, MRC5, isolated compounds, 72 h, read-out: IC50 in μg/ml (μM) (MRC5) 72 h (converted)
# Method: (§1) The human cell lines A549 (lung cancer) and Ca Ski (cervical cancer) were cultured as monolayer in RPMI 1640 growth media whereas HCT-116 (colon cancer) and MRC5 (human normal lung fibroblasts) was cultured in McCoy’s 5A and EMEM medium, respectively. All cells were purchased from the […] (ATCC, USA). All the media were supplemented with 10 % v/v foetal bovine serum (FBS), 100 μg/mL penicillin/streptomycin, and 50 μg/mL amphotericin B. The cells were cultured in a 5 % CO2 incubator at 37 °C.
# (§2) The monolayer cell culture was detached using accutase and the cell count was adjusted to 2.5 x10^5 -3.0 x10^5 cells/mL using medium containing feotal bovine serum. The cells were then plated into 96 wells with a cell density of 5000-7000 cells/well and then incubated for 24 h to allow adherence of cells to the base of well of the plates. The media was then removed and 200 μl of fresh media containing different concentration of various extracts or isolated compounds were added. Cisplatin was used as the positive control. The plates were incubated for 24, 48 and 72 h at 37 °C and 5 % CO2. The cytotoxicity of the extracts and isolated compounds were screened using the […] (SRB) assay. This assay was first described by Houghton in 2007 [8]. The incubation was halted by gentle addition of 50 μl ice cold 4 % trichloroacetic acid (TCA) to each well and the plates were incubated at 4 °C for 1 h. Then, the supernatant was discarded and the plates were washed with distilled water for 5 times and then air dried. SRB dye, 50 μl, (0.4 % w/v) was added into each well and the treated cells and control were incubated at room temperature for 30 min. The unbound dye was removed by rapid washing four times with 1 % acetic acid. The plates were then air dried and 100 μl of tris base (10 mM unbuffered, pH 10.5) was added and the plates were shaken at 500 rpm for 5 min to solublize the bound SRB stain. The plates were then read with an ELISA reader (Synergy H1 Hybrid) at an absorbance of 492 nm.
# A549 cell line = assay: SRB in vitro cytotoxicity screening; assay type: cell-based, human; settings: Homo sapiens, A549, isolated compounds
# Method: as §1, §2
# [4] = system: cervical carcinoma (HeLa); design: method as in PMID 17109253; settings: arborinine isolated from Ruta graveolens; cited from earlier work
# A-549 tumour cell line = settings: cited from earlier work
# [5] = system: hepatitis C virus, hepatoma cell line (Huh7.5); design: method as in PMID 25454460; settings: cited from earlier work
# [6] = system: DLD (DLD-1): Human colon adenocarcinoma; design: method as in earlier work; settings: cited from earlier work
# washed rabbit platelets = system: washed rabbit platelets; design: method as in earlier work; settings: cited from earlier work; for % inhibition of platelet aggregation, inducer AA: AA 100 /c109/c77; for % inhibition of platelet aggregation, inducer Col: collagen 10 /c109g/mL
# Hepa: Human hepatoma = system: Hepa: Human hepatoma; design: method as in earlier work; settings: cited from earlier work
# [7] = system: Hela: Human cervix epithelioid carcinoma; design: method as in earlier work; settings: cited from earlier work
# [8] = 48 h, value in brackets, read-out: IC50 in μg/ml (μM) (A549) 48 h (converted)
# [9] = 48 h, read-out: IC50 in μg/ml (μM) (A549) 48 h (converted)
# [10] = 72 h, value in brackets, read-out: IC50 in μg/ml (μM) (A549) 72 h (converted)
# [11] = 72 h, read-out: IC50 in μg/ml (μM) (A549) 72 h (converted)
compound,measurement,setting,value
"COc1cc2c(c(O)c1OC)c(=O)c1ccccc1n2C [Arborinine, arborinine]",IC50,[1],12.95 µg/mL
same,IC50,[2],11.74 µg/mL
same,IC50,[3]; value in brackets,73 µM
same,IC50,[3],20.8 ± 0.15 µg/mL
same,IC50,A549 cell line; [8],97.2 µM
same,IC50,A549 cell line; [9],27.7 ± 0.26 µg/mL
same,IC50,A549 cell line; [10],46 µM
same,IC50,A549 cell line; [11],13.1 ± 0.06 µg/mL
same,IC50,[4],1.84 µg/mL
"C=CC(C)(C)c1cc2cc3c(cc2oc1=O)OC(C(C)(C)OC(C)=O)C3 (centres unmarked) [Rutamarin, rutamarin]",IC50,[3]; value in brackets,> 281 µM
same,IC50,[3],> 100 µg/mL
same,IC50 against A549 cell line,A-549 tumour cell line,1.318 µg/mL
same,IC50,A549 cell line; [8],158 µM
same,IC50,A549 cell line; [9],56.3 ± 1.53 µg/mL
same,IC50,A549 cell line; [10],192 µM
same,IC50,A549 cell line; [11],68.5 ± 3.06 µg/mL
"CC(=O)O[C@H]1C(=O)[C@@]2(C)[C@H]([C@H](OC(=O)c3ccccc3)[C@]3(O)C[C@H](OC(=O)[C@H](O)[C@@H](NC(=O)c4ccccc4)c4ccccc4)C(C)=C1C3(C)C)[C@]1(OC(C)=O)CO[C@@H]1C[C@@H]2O [Taxol, reference compound]",IC50 A-549,A-549 tumour cell line,16.6 µg/mL
CCCCCCCCCc1cc(=O)c2ccccc2[nH]1 [pseudane IX],replication of hepatitis C virus,[5],stop the replication
graveolinine [Compound 16],ED50 DLD,[6],- (“-“: ED50 /c6220 /c109g/mL)
same,"% inhibition of platelet aggregation, inducer AA",washed rabbit platelets; Conc. 0.2 /c109g/mL,6.8%
same,"% inhibition of platelet aggregation, inducer AA",washed rabbit platelets; Conc. 0.5 /c109g/mL,14.9%
same,"% inhibition of platelet aggregation, inducer Col",washed rabbit platelets; Conc. 0.5 /c109g/mL,5.8%
same,"% inhibition of platelet aggregation, inducer AA",washed rabbit platelets; Conc. 1 /c109g/mL,26.9%
same,"% inhibition of platelet aggregation, inducer Col",washed rabbit platelets; Conc. 1 /c109g/mL,19.2%
same,"% inhibition of platelet aggregation, inducer AA",washed rabbit platelets; Conc. 2 /c109g/mL,38.4%
same,"% inhibition of platelet aggregation, inducer Col",washed rabbit platelets; Conc. 2 /c109g/mL,25.4%
same,"% inhibition of platelet aggregation, inducer AA",washed rabbit platelets; Conc. 5 /c109g/mL,71.2%
same,"% inhibition of platelet aggregation, inducer Col",washed rabbit platelets; Conc. 5 /c109g/mL,33.3%
same,"% inhibition of platelet aggregation, inducer AA",washed rabbit platelets; Conc. 10 /c109g/mL,73.1%
same,"% inhibition of platelet aggregation, inducer Col",washed rabbit platelets; Conc. 10 /c109g/mL,49.5%
same,"% inhibition of platelet aggregation, inducer AA",washed rabbit platelets; Conc. 20 /c109g/mL,77.4%
same,"% inhibition of platelet aggregation, inducer Col",washed rabbit platelets; Conc. 20 /c109g/mL,72.6%
same,"% inhibition of platelet aggregation, inducer AA",washed rabbit platelets; Conc. 50 /c109g/mL,100.0%
same,"% inhibition of platelet aggregation, inducer Col",washed rabbit platelets; Conc. 50 /c109g/mL,81.2%
same,"% inhibition of platelet aggregation, inducer AA",washed rabbit platelets; Conc. 100 /c109g/mL,100.0%
same,"% inhibition of platelet aggregation, inducer PAF","washed rabbit platelets; Conc. 100 /c109g/mL, PAF 2ng/mL",34.6%
same,"% inhibition of platelet aggregation, inducer Col",washed rabbit platelets; Conc. 100 /c109g/mL,100.0%
same,"% inhibition of platelet aggregation, inducer Thr","washed rabbit platelets; Conc. 100 /c109g/mL, thrombin 0.1 U/mL",9.0%
same,ED50 Hepa,Hepa: Human hepatoma,- (“-“: ED50 /c6220 /c109g/mL)
same,ED50 Hela,[7],- (“-“: ED50 /c6220 /c109g/mL)
rutamarin [Compound 4],IC50 A-549,A-549 tumour cell line,1318 µg/mL
skimmianine [Compound 7],ED50 DLD,[6],- (“-“: ED50 /c6220 /c109g/mL)
same,"% inhibition of platelet aggregation, inducer AA",washed rabbit platelets; Conc. 20 /c109g/mL,5.4%
same,"% inhibition of platelet aggregation, inducer Col",washed rabbit platelets; Conc. 20 /c109g/mL,2.5%
same,"% inhibition of platelet aggregation, inducer AA",washed rabbit platelets; Conc. 50 /c109g/mL,13.1%
same,"% inhibition of platelet aggregation, inducer Col",washed rabbit platelets; Conc. 50 /c109g/mL,7.8%
same,"% inhibition of platelet aggregation, inducer AA",washed rabbit platelets; Conc. 100 /c109g/mL,81.5%
same,"% inhibition of platelet aggregation, inducer Col",washed rabbit platelets; Conc. 100 /c109g/mL,45.9%
same,ED50 Hepa,Hepa: Human hepatoma,- (“-“: ED50 /c6220 /c109g/mL)
same,ED50 Hela,[7],- (“-“: ED50 /c6220 /c109g/mL)

# Reference: PMC5059921, “Chalepin: isolated from Ruta angustifolia L. Pers induces mitochondrial mediated apoptosis in lung carcinoma cells” (BMC Complementary and Alternative Medicine, 2016)
